As usually defined, the EC50 is the midpoint of the concentration-response curve.

From patent US8119624B2, “Fused phenyl amido heterocyclic compounds” (Pfizer Inc., priority 2006, dated 2012) come the findings set out here.

The target of the assay is T1, Full-length glucokinase (beta cell isoform) (Homo sapiens, UniProt P35557).
T1 construct: Full-length glucokinase (beta cell isoform) was His-tagged at N-terminus; His tag (N); made in house
T1 sequence (P35557 1-465): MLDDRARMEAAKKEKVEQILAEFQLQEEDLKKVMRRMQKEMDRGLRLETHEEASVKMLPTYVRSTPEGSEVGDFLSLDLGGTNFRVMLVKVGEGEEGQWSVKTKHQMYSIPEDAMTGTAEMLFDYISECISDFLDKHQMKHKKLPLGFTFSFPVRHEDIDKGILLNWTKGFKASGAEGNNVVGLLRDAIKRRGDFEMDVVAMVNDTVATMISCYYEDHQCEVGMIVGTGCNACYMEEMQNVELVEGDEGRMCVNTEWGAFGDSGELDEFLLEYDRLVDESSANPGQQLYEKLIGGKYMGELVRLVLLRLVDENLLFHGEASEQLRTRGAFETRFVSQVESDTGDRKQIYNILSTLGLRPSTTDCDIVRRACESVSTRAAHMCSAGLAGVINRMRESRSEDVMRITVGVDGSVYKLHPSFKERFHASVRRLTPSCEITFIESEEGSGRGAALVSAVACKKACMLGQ
As to the kind of experiment: Glucokinase biochemical assay (PK/LDH-coupled, NADH depletion at 340 nm): % activation, EC50, % max activation. The settings on record: 5 mM glucose; for activation at 10 µM: 10 uM compound, % Activation=(Va/Vo−1)×100, read-out: % Activation at 10 uM; for EC50: GK activation, read-out: EC50; for Emax: fitted maximum activation, read-out: % Max Activation. The method, boiled down: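 Activation expressed as (Va/Vo−1)×100, where initial rates with and without compound come from NADH depletion at 340 nm over 200–900 s. Enzyme is His-tagged human beta-cell GK, full length, run at room temperature in HEPES buffer with 1 mM ATP and 5 mM glucose. DMSO 1%.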

Regarding `CN(C)C(=O)c1ccc(Oc2cc(C(=O)Nc3ccn(C)n3)cc3c2CC(C)(C)O3)c(Cl)c1` [Example 107, 4-(2-Chloro-4-dimethylcarbamoyl-phenoxy)-2,2-dimethyl-2,3-dihydro-benzofuran-6-carboxylic acid (1-methyl-1H-pyrazol-3-yl)-amide], the activation at 10 µM came to 173%, the EC50 was 97 nM and the Emax turned out to be 163%.
Consider `CN(C)C(=O)c1ccc(Oc2cc(C(=O)Nc3ccn(C)n3)cc3c2CC(C)(C)O3)cc1Cl` [Example 108, 4-(3-Chloro-4-dimethylcarbamoyl-phenoxy)-2,2-dimethyl-2,3-dihydro-benzofuran-6-carboxylic acid (1-methyl-1H-pyrazol-3-yl)-amide], for which the activation at 10 µM was determined as 82.2%, the EC50 worked out at 76 nM and the Emax turned out to be 107%.
Turning to `CN(C)C(=O)c1cc(F)c(Oc2cc(C(=O)Nc3ccn(C)n3)cc3c2CC(C)(C)O3)cc1F` [Example 109, 4-(4-Dimethylcarbamoyl-2,5-difluoro-phenoxy)-2,2-dimethyl-2,3-dihydro-benzofuran-6-carboxylic acid (1-methyl-1H-pyrazol-3-yl)-amide], the activation at 10 µM is 86.9%, the EC50 was 280 nM and the Emax is 83%.
For the compound `Cn1ccc(NC(=O)c2cc(Oc3cc(F)c(C(=O)N4CCC4)c(F)c3)c3c(c2)OC(C)(C)C3)n1` [Example 110, 4-[4-(Azetidine-1-carbonyl)-3,5-difluoro-phenoxy]-2,2-dimethyl-2,3-dihydro-benzofuran-6-carboxylic acid (1-methyl-1H-pyrazol-3-yl)-amide], the activation at 10 µM is 139%, the EC50 came out at 72 nM and the Emax came out at 131%.
Take `CN(C)C(=O)c1c(F)cc(Oc2cc(C(=O)Nc3ccn(C)n3)cc3c2CC(C)(C)O3)cc1F` [Example 111, 4-(4-Dimethylcarbamoyl-3,5-difluoro-phenoxy)-2,2-dimethyl-2,3-dihydro-benzofuran-6-carboxylic acid (1-methyl-1H-pyrazol-3-yl)-amide]: the activation at 10 µM stood at 85.2%, the EC50 stood at 45 nM and the Emax came out at 115%.
Take `CCNC(=O)c1c(F)cc(Oc2cc(C(=O)Nc3ccn(C)n3)cc3c2CC(C)(C)O3)cc1F` [Example 112, 4-(4-Ethylcarbamoyl-3,5-difluoro-phenoxy)-2,2-dimethyl-2,3-dihydro-benzofuran-6-carboxylic acid (1-methyl-1H-pyrazol-3-yl)-amide]: the activation at 10 µM was 130%, the EC50 came out at 44 nM and the Emax is 153%.
The matching figures for `Cn1ccc(NC(=O)c2cc(Oc3cc(F)cc(F)c3)c3c(c2)OC(C)(C)C3)n1` [Example 113, 4-(3,5-Difluoro-phenoxy)-2,2-dimethyl-2,3-dihydro-benzofuran-6-carboxylic acid (1-methyl-1H-pyrazol-3-yl)-amide]: 239%, 2600 nM and 265%.
On to `Cn1ccc(NC(=O)c2cc(Oc3ccc(S(C)(=O)=O)c(F)c3)c3c(c2)OC(C)(C)C3)n1` [Example 114, 4-(3-Fluoro-4-methanesulfonyl-phenoxy)-2,2-dimethyl-2,3-dihydro-benzofuran-6-carboxylic acid (1-methyl-1H-pyrazol-3-yl)-amide], for which the activation at 10 µM was 156%, the EC50 stood at 203 nM and the Emax turned out to be 164%.
Taken in the same sequence, the figures for `Cn1ccc(NC(=O)c2cc(Oc3cc(F)ccc3S(C)(=O)=O)c3c(c2)OC(C)(C)C3)n1` [Example 115, 4-(5-Fluoro-2-methanesulfonyl-phenoxy)-2,2-dimethyl-2,3-dihydro-benzofuran-6-carboxylic acid (1-methyl-1H-pyrazol-3-yl)-amide] were 79.7%, 8800 nM and 141%.
On to `Cc1ccc(NC(=O)c2cc(Oc3ccc(S(C)(=O)=O)c(F)c3)c3c(c2)OC(C)(C)C3)nc1` [Example 116, 4-(3-Fluoro-4-methanesulfonyl-phenoxy)-2,2-dimethyl-2,3-dihydro-benzofuran-6-carboxylic acid (5-methyl-pyridin-2-yl)-amide], for which the activation at 10 µM was 110%, the EC50 was found to be 73 nM and the Emax came out at 112%.
The matching figures for `Cn1ncc(NC(=O)c2cc(Oc3ccc(S(C)(=O)=O)c(F)c3)c3c(c2)OC(C)(C)C3)n1` [Example 117, 4-(3-Fluoro-4-methanesulfonyl-phenoxy)-2,2-dimethyl-2,3-dihydro-benzofuran-6-carboxylic acid (2-methyl-2H-[1,2,3]triazol-4-yl)-amide]: 325%, 150 nM and 283%.
The matching figures for `Cn1ncc(NC(=O)c2cc(Oc3ccc(S(C)(=O)=O)c(Cl)c3)c3c(c2)OC(C)(C)C3)n1` [Example 118, 4-(3-Chloro-4-methanesulfonyl-phenoxy)-2,2-dimethyl-2,3-dihydro-benzofuran-6-carboxylic acid (2-methyl-2H-[1,2,3]triazol-4-yl)-amide]: 244%, 320 nM and 251%.
As to `Cn1ncc(NC(=O)c2cc(Oc3ccc(S(C)(=O)=O)cc3Cl)c3c(c2)OC(C)(C)C3)n1` [Example 119, 4-(2-Chloro-4-methanesulfonyl-phenoxy)-2,2-dimethyl-2,3-dihydro-benzofuran-6-carboxylic acid (2-methyl-2H-[1,2,3]triazol-4-yl)-amide], the activation at 10 µM turned out to be 242%, the EC50 stood at 430 nM and the Emax came out at 223%.
Regarding `Cc1ccc(NC(=O)c2cc(Oc3ccc(S(C)(=O)=O)cc3F)c3c(c2)OC(C)(C)C3)nc1` [Example 120, 4-(2-Fluoro-4-methanesulfonyl-phenoxy)-2,2-dimethyl-2,3-dihydro-benzofuran-6-carboxylic acid (5-methyl-pyridin-2-yl)-amide], the activation at 10 µM came out at 80.5%, the half-maximal effective concentration (EC50) was determined as 200 nM and the Emax is 79%.
The matching figures for `Cn1ccc(NC(=O)c2cc(Oc3ccc(S(C)(=O)=O)cc3F)c3c(c2)OC(C)(C)C3)n1` [Example 121, 4-(2-Fluoro-4-methanesulfonyl-phenoxy)-2,2-dimethyl-2,3-dihydro-benzofuran-6-carboxylic acid (1-methyl-1H-pyrazol-3-yl)-amide]: 124%, 500 nM and 152%.
The matching figures for `CN(C)S(=O)(=O)c1ccc(Oc2cc(C(=O)Nc3ccn(C)n3)cc3c2CC(C)(C)O3)cc1` [Example 122, 4-(4-Dimethylsulfamoyl-phenoxy)-2,2-dimethyl-2,3-dihydro-benzofuran-6-carboxylic acid (1-methyl-1H-pyrazol-3-yl)-amide]: 184%, 100 nM and 159%.
The matching figures for `Cn1ccc(NC(=O)c2cc(Oc3ccc(S(=O)(=O)C4CCC4)cc3)c3c(c2)OC(C)(C)C3)n1` [Example 123, 4-(4-Cyclobutanesulfonyl-phenoxy)-2,2-dimethyl-2,3-dihydro-benzofuran-6-carboxylic acid (1-methyl-1H-pyrazol-3-yl)-amide]: 189%, 55 nM and 150%.
As for `Cc1ccc(NC(=O)c2cc(Oc3ccc(S(=O)(=O)N4CCC4)cc3)c3c(c2)OC(C)(C)C3)nc1` [Example 124, 4-[4-(Azetidine-1-sulfonyl)-phenoxy]-2,2-dimethyl-2,3-dihydro-benzofuran-6-carboxylic acid (5-methyl-pyridin-2-yl)-amide], the activation at 10 µM came out at 156%, the concentration for a half-maximal effect (EC50) amounted to 38 nM and the Emax was 113%.
As for `Cn1ccc(NC(=O)c2cc(Oc3ccc(S(=O)(=O)N4CCC4)cc3)c3c(c2)OC(C)(C)C3)n1` [Example 125, 4-[4-(Azetidine-1-sulfonyl)-phenoxy]-2,2-dimethyl-2,3-dihydro-benzofuran-6-carboxylic acid (1-methyl-1H-pyrazol-3-yl)-amide], the activation at 10 µM is 181%, the concentration giving a half-maximal response (EC50) was 46 nM and the Emax amounted to 162%.
Taken in the same sequence, the figures for `CCS(=O)(=O)c1ccc(Oc2cc(C(=O)Nc3ccc(C)cn3)cc3c2CC(C)(C)O3)cc1` [Example 126, 4-(4-Ethanesulfonyl-phenoxy)-2,2-dimethyl-2,3-dihydro-benzofuran-6-carboxylic acid (5-methyl-pyridin-2-yl)-amide] were 137%, 37 nM and 118%.
Take `CCS(=O)(=O)c1ccc(Oc2cc(C(=O)Nc3ccn(C)n3)cc3c2CC(C)(C)O3)cc1` [Example 127, 4-(4-Ethanesulfonyl-phenoxy)-2,2-dimethyl-2,3-dihydro-benzofuran-6-carboxylic acid (1-methyl-1H-pyrazol-3-yl)-amide]: the activation at 10 µM turned out to be 193%, the half-maximal effective concentration (EC50) came to 66 nM and the Emax came out at 165%.
